Data: DBAASP
Values after ≈ are worked out from the molar mass of the structure shown. Each block holds one compound with its values, some of them ahead of it.

Legend:
Test in all cases: ≥ marks a high value that may be exact or a test limit, other limits are often not marked, values filed in µg/mL are converted to µM
[1] = test system: Pseudomonas aeruginosa CCARM 2095
[2] = test system: Staphylococcus aureus CCARM 3001
[3] = test system: Staphylococcus epidermidis KCTC 1917
[4] = test system: Salmonella typhimurium KCTC 1926
[5] = test system: Staphylococcus aureus KCTC 1621
[6] = test system: Staphylococcus aureus CCARM 3543
[7] = test system: Pseudomonas aeruginosa KCTC 1637
[8] = test system: Pseudomonas aeruginosa CCARM 2109
[9] = test system: Escherichia coli KCTC 1682
[10] = test system: Bacillus subtilis KCTC 3068
Escherichia coli = test system: Escherichia coli
[11] = test system: Staphylococcus epidermidis
Proteus vulgaris = test system: Proteus vulgaris
Salmonella typhimurium = test system: Salmonella typhimurium
Bacillus subtilis = test system: Bacillus subtilis
Streptococcus pyogenes = test system: Streptococcus pyogenes
Pseudomonas aeruginosa = test system: Pseudomonas aeruginosa
[12] = test system: Staphylococcus epidermidis ATCC 12228
[13] = test system: Micrococcus luteus ATCC 10240
[14] = test system: Escherichia coli ATCC 25922
[15] = test system: Pseudomonas aeruginosa ATCC 27853
[16] = test system: Klebsiella pneumoniae ATCC 10031
[17] = test system: Salmonella enterica subsp. enterica serovar Typhimurium ATCC 14028
[18] = test system: Shigella dysenteriae ATCC 9752
[19] = test system: Bacillus subtilis ATCC 6633
[20] = test system: Staphylococcus aureus ATCC 6538P
Candida albicans MDM8 = test system: Candida albicans MDM8
[21] = test system: Trichosporon sp. IOC 4569
[22] = test system: Candida parapsilosis IOC 4564
Candida krusei IOC 4559 = test system: Candida krusei IOC 4559
[23] = test system: Candida albicans IOC 4558
[24] = test system: Candida glabrata IOC 4565
[25] = test system: Candida tropicalis IOC 4560
[26] = test system: Escherichia coli DH5alpha
[27] = test system: Micrococcus luteus ATCC 4698
[28] = test system: Staphylococcus aureus ATCC 6538
[29] = test system: Candida albicans ATCC 64550

MIC [12]: 10.8 µM (≈ 12.5 µg/mL)
MIC [13]: 21.7 µM (≈ 25 µg/mL)
MIC [14]: 10.8 µM (≈ 12.5 µg/mL)
MIC [15]: 43.3 µM (≈ 50 µg/mL)
MIC [16]: 5.46 µM (≈ 6.29 µg/mL)
MIC [17]: 21.7 µM (≈ 25 µg/mL)
MIC [18]: 10.8 µM (≈ 12.5 µg/mL)
MIC [19]: 10.8 µM (≈ 12.5 µg/mL)
MIC [20]: 2.69 µM (≈ 3.1 µg/mL)
SMILES: CC(C)C[C@H](NC(=O)[C@H](CCCCN)NC(=O)[C@H](CC(C)C)NC(=O)[C@H](CC(C)C)NC(=O)[C@H](Cc1c[nH]c2ccccc12)NC(=O)[C@H](CCCCN)NC(=O)[C@H](CC(C)C)NC(=O)[C@H](CC(C)C)NC(=O)[C@@H](N)CCCCN)C(N)=O [KLLKWLLKL]

MIC (Candida albicans MDM8): ≥ 33.5 µM
MIC [21]: 2.1 µM (≈ 2.6 µg/mL)
MIC [22]: ≥ 33.5 µM
MIC (Candida krusei IOC 4559): ≥ 33.5 µM
MIC [23]: 16.5 µM (≈ 20.4 µg/mL)
MIC [24]: 16.5 µM (≈ 20.4 µg/mL)
MIC [25]: 16.5 µM (≈ 20.4 µg/mL)
SMILES: CC[C@H](C)[C@H](N)C(=O)N[C@H](C(=O)N[C@H](C(=O)N[C@@H](CCC(N)=O)C(=O)N[C@@H](Cc1ccc(O)cc1)C(=O)N[C@@H](CCC(=O)O)C(=O)NCC(=O)N[C@@H](Cc1cnc[nH]1)C(=O)N[C@@H](CCCCN)C(=O)N[C@@H](Cc1cnc[nH]1)C(=O)O)[C@@H](C)CC)[C@@H](C)CC [IIIQYEGHKH]

MIC [12]: 29.4 µM (≈ 40 µg/mL)
MIC [26]: ≥ 36.8 µM
MIC [27]: 10.3 µM (≈ 14 µg/mL)
MIC [28]: 19.1 µM (≈ 26 µg/mL)
SMILES: CC(C)C[C@H](NC(=O)[C@H](CC(C)C)NC(=O)[C@H](CCCCN)NC(=O)[C@H](CO)NC(=O)[C@H](CC(C)C)NC(=O)[C@H](C)NC(=O)[C@H](CCCCN)NC(=O)[C@@H](NC(=O)[C@@H](NC(=O)[C@H](C)NC(=O)CNC(=O)[C@H](CC(C)C)NC(=O)[C@@H](N)Cc1ccccc1)C(C)C)C(C)C)C(=O)O [FLGAVVKALSKLL]

MIC [1]: 4 µM (≈ 6.22 µg/mL)
MIC [2]: 4 µM (≈ 6.22 µg/mL)
MIC [29]: ≥ 100 µM
MIC [3]: 2 µM (≈ 3.11 µg/mL)
MIC [4]: 1 µM (≈ 1.56 µg/mL)
MIC [5]: 2 µM (≈ 3.11 µg/mL)
MIC [6]: 4 µM (≈ 6.22 µg/mL)
MIC [7]: 2 µM (≈ 3.11 µg/mL)
MIC [8]: 8 µM (≈ 12.4 µg/mL)
MIC [9]: 2 µM (≈ 3.11 µg/mL)
MIC [10]: 4 µM (≈ 6.22 µg/mL)
SMILES: CC(C)C[C@H](NC(=O)[C@H](Cc1c[nH]c2ccccc12)NC(=O)[C@H](CCCCN)NC(=O)[C@H](CCCCN)NC(=O)[C@H](Cc1c[nH]c2ccccc12)NC(=O)[C@H](CC(C)C)NC(=O)[C@H](CCCCN)NC(=O)[C@H](Cc1c[nH]c2ccccc12)NC(=O)[C@H](CC(C)C)NC(=O)[C@@H](N)CCCCN)C(=O)N[C@@H](CCCCN)C(N)=O [KLWKLWKKWLK]

MIC [12]: 5.42 µM (≈ 8 µg/mL)
MIC [26]: ≥ 271 µM
MIC [27]: 1.35 µM (≈ 2 µg/mL)
MIC [28]: 2.03 µM (≈ 3 µg/mL)
SMILES: CC(C)C[C@H](NC(=O)[C@H](CC(C)C)NC(=O)[C@H](CCCCN)NC(=O)[C@H](CO)NC(=O)[C@H](CC(C)C)NC(=O)[C@@H](NC(=O)[C@H](CCCCN)NC(=O)[C@H](Cc1ccccc1)NC(=O)[C@H](CC(C)C)NC(=O)[C@@H](NC(=O)CNC(=O)[C@H](CC(C)C)NC(=O)[C@@H](N)Cc1ccccc1)C(C)C)C(C)C)C(=O)O [FLGVLFKVLSKLL]

Second part, the compound before the results:

SMILES: CC(C)C[C@H](NC(=O)[C@@H](N)CCCN=C(N)N)C(=O)N[C@@H](Cc1c[nH]c2ccccc12)C(=O)N[C@@H](CCCN=C(N)N)C(=O)N[C@@H](CCCN=C(N)N)C(=O)N[C@@H](Cc1c[nH]c2ccccc12)C(=O)N[C@@H](CCCN=C(N)N)C(=O)N[C@@H](CCCN=C(N)N)C(=O)N[C@@H](Cc1c[nH]c2ccccc12)C(=O)N[C@@H](CCCN=C(N)N)C(=O)N[C@@H](CCCN=C(N)N)C(N)=O [RLWRRWRRWRR]
MIC [1]: 16 µM (≈ 28.5 µg/mL)
MIC [2]: 8 µM (≈ 14.3 µg/mL)
MIC [3]: 2 µM (≈ 3.56 µg/mL)
MIC [4]: 4 µM (≈ 7.13 µg/mL)
MIC [5]: 4 µM (≈ 7.13 µg/mL)
MIC [6]: 2 µM (≈ 3.56 µg/mL)
MIC [7]: 8 µM (≈ 14.3 µg/mL)
MIC [8]: 16 µM (≈ 28.5 µg/mL)
MIC [9]: 8 µM (≈ 14.3 µg/mL)
MIC [10]: 4 µM (≈ 7.13 µg/mL)

SMILES: CC(C)C[C@H](NC(=O)[C@H](CCCN=C(N)N)NC(=O)[C@@H]1CCCN1C(=O)[C@H](Cc1cnc[nH]1)NC(=O)[C@@H]1CCCN1C(=O)[C@@H]1CCCN1C(=O)[C@H](CCCN=C(N)N)NC(=O)[C@@H]1CCCN1C(=O)[C@@H]1CCCN1C(=O)[C@H](Cc1cnc[nH]1)NC(=O)[C@@H]1CCCN1C(=O)[C@@H]1CCCN1C(=O)[C@H](CCCN=C(N)N)NC(=O)[C@@H]1CCCN1C(=O)[C@@H]1CCCN1C(=O)[C@H](Cc1cnc[nH]1)NC(=O)[C@@H]1CCCN1C(=O)[C@@H]1CCCN1C(=O)[C@H](CCCN=C(N)N)NC(=O)[C@@H]1CCCN1C(=O)[C@@H]1CCCN1C(=O)[C@H](Cc1cnc[nH]1)NC(=O)[C@@H]1CCCN1C(=O)[C@@H]1CCCN1C(=O)[C@H](CCCN=C(N)N)NC(=O)[C@@H]1CCCN1)C(=O)O [PRPPHPPRPPHPPRPPHPPRPPHPRL]
MIC (Escherichia coli): 1 µM (≈ 3.01 µg/mL)
MIC [11]: ≥ 64 µM
MIC (Proteus vulgaris): 2 µM (≈ 6.03 µg/mL)
MIC (Salmonella typhimurium): 0.5 µM (≈ 1.51 µg/mL)
MIC (Bacillus subtilis): ≥ 32 µM
MIC (Streptococcus pyogenes): ≥ 64 µM
MIC (Pseudomonas aeruginosa): 4 µM (≈ 12.1 µg/mL)

SMILES: CC(C)C[C@H](NC(=O)[C@H](CCCN=C(N)N)NC(=O)[C@@H]1CCCN1C(=O)[C@H](Cc1cnc[nH]1)NC(=O)[C@@H]1CCCN1C(=O)[C@@H]1CCCN1C(=O)[C@H](CCCN=C(N)N)NC(=O)[C@@H]1CCCN1C(=O)[C@@H](N)CCC(N)=O)C(=O)O [QPRPPHPRL]
MIC (Escherichia coli): 64 µM (≈ 70.2 µg/mL)
MIC [11]: ≥ 64 µM
MIC (Proteus vulgaris): ≥ 64 µM
MIC (Salmonella typhimurium): ≥ 32 µM
MIC (Bacillus subtilis): ≥ 64 µM
MIC (Streptococcus pyogenes): ≥ 64 µM
MIC (Pseudomonas aeruginosa): 64 µM (≈ 70.2 µg/mL)
